Legend:
MEK1 and MEK2 = settings: Bain et al., 2007; cited from earlier work
[1] = test system: human rtTET-expressing ESCs transfected with GFH, H1ANR3 and TBX3; test: Hepatic programming efficiency, albumin (ALB) flow analysis; assay type: cell-based; settings: for % ALB-expressing cells (hepatic programming efficiency): 0.5 μM added alone along with doxycycline between day 1 and day 7 post-plating, ALB flow analysis on day 13, FIG. 6
Text: Genes that are either implicated in hepatic differentiation during normal mammalian development or enriched in adult hepatocytes were cloned into the PiggyBac vector (FIG. 3) under the control of the […] promoter (Table 1). To find transcription factors that are able to directly impose mature hepatic fate upon human ESCs, various combinations of transgene-expressing PiggyBac vectors along with the hPBase-expressing vector were introduced into the human ESCs having constitutive expression of rtTET through nucleofection (Minis Ingenio Electroporation solution: cat# MIR50114; program: Amaxa B-016). Nucleofected human ESCs were cultured on matrigel in mTeSR1 (Stem Cell Technologies). Following geneticin (100 μg/ml) selection for stable genomic transgene integration (cells were passaged at lease once prior to differentiation), human ESCs were individualized by accutase treatment and plated to matrigel-coated 12-well plates. Doxycycline (1 μg/ml) was added the next day to induce transgene expression in Hepatocyte Maintenance Medium (HMM, Lonza) supplemented with 0.5 μg/ml insulin, 0.1 μM dexamethasone (dex), and 50 ng/ml Oncostatin M (OSM). After transgene induction for the appropriate number of days, doxycycline was removed, and cells were allowed to transition to hepatocyte-like cells and were maintained in HMM supplemented with 0.5 μg/ml insulin, 0.1 μM dex, and 50 ng/ml OSM prior to characterization. Where appropriate, small molecules, such as MEK inhibitor PD0325901, […] kinase/activin receptor like kinase (ALK5) inhibitor A 83-01, and an analogue of the natural signaling molecule cyclic AMP 8-Bromoadenosine 3',5'-cyclic monophosphate (8-Br-cAMP), were added during hepatic programming. To determine the effect of MEK inhibitor PD0325901 (P) and TGFβ kinase/activin receptor like kinase (ALK5) inhibitor A 83-01 (A) on hepatic programming efficiency, human rtTET-expressing ESCs transfected with […]3 and TBX3 were plated on matrigel-coated 12-well plates at about 0.2×10^6 cells/well in mTeSR supplemented with 10 μM HA100 on day 0. PD0325901 (0.5 μM), A 83-01 (0.5 μM) or both were added along with doxycycline between day 1 and day 7 post-plating. Cells were collected for albumin (ALB) flow analysis on day 13 post-plating. […] To determine the effect of cyclic AMP analog 8-Br-cAMP on hepatic programming, human rtTET-expressing ESCs transfected with […]3 and TBX3 were plated on matrigel-coated 12-well plates at about 0.2×10^6 cells/well in mTeSR supplemented with 10 μM HA100 on day 0. Doxycycline (1 μg/ml), P and A were added between day 1 and day 7 post-plating. Following the removal of doxycycline, P and A on day 7, different concentrations of 8-Br-cAMP were added to promote hepatic transition. Cells were collected for ALB flow analysis on day 13 post-plating.

O=C(NOCC1CC1)c1ccc(F)c(F)c1Nc1ccc(I)cc1Cl [PD184352]
specificity and potency compared to other known MEK inhibitors (MEK1 and MEK2): high degree of specificity and potency

O=C(NOC[C@H](O)CO)c1ccc(F)c(F)c1Nc1ccc(I)cc1F [PD0325901]
% ALB-expressing cells (hepatic programming efficiency) [1]: significantly improves

Nc1ncnc2c1nc(Br)n2[C@@H]1O[C@@H]2COP(=O)(O)O[C@H]2[C@H]1O [8-Br-cAMP, 8-Bromoadenosine 3′,5′-cyclic monophosphate]
saturation concentration for improvement of hepatic programming ([1]; added from day 7 after removal of doxycycline, P and A, ALB flow analysis day 13, FIG. 8): ~200 µM | hepatic programming (ALB flow analysis) ([1]; different concentrations added from day 7 after removal of doxycycline, P and A, ALB flow analysis day 13, FIG. 8): significantly improved

Cc1cccc(-c2nn(C(=S)Nc3ccccc3)cc2-c2ccnc3ccccc23)n1 [A 83-01]
% ALB-expressing cells (hepatic programming efficiency) [1]: significantly improves

— patent publication US20170107486A1, “HEPATOCYTE PRODUCTION VIA FORWARD PROGRAMMING BY COMBINED GENETIC AND CHEMICAL ENGINEERING” (Cellular Dynamics International, Inc., priority 2014, published 2017)
